Test results from publication PMC7915765, “Biochemical Characterization, Specificity and Inhibition Studies of HTLV-1, HTLV-2, and HTLV-3 Proteases” (Life, 2021).
Like-named read-outs stand apart in the source and are kept apart here.

Legend:
HTLV-1 PR = conditions: cited from earlier work
Source text: Table 2 Catalytic efficiencies of HTLV PRs on different substrates representing natural cleavage site sequences. Cleavage sites are labelled by asterisks within the sequences. Abbreviations: MA (matrix), CA (capsid), NC (nucleocapsid), and TF1 (trans-frame 1). | column: kcat/KM [mM^−1 s^−1] / HTLV-1 PR || Table 3 Catalytic efficiencies of HTLV PRs on different substrates representing natural cleavage site sequences of viruses other than HTLV. Cleavage sites are labelled by an asterisk within the sequences. Abbreviations: MA (matrix), CA (capsid), NC (nucleocapsid), TF (transframe), RT (reverse-transcriptase), and IN (integrase). | column: Substrate; kcat/KM (mM^−1 s^−1) / HTLV-1 PR ^1

HTLV-2 PR = HTLV-2 PR (Human T-cell leukemia virus 2, UniProt P03363); test: Protease activity assay with oligopeptide substrates (RP-HPLC), HTLV-2 PR; type: biochemical, human T-cell leukemia virus type 2; design: made in house; host or cells: E. coli BL21(DE3); conditions: pH 5.6, 37 °C
Source text: (§1) The oligopeptides representing the naturally occurring matrix/capsid (MA/CA), capsid/nucleocapsid (CA/NC), trans-frame protein/protease (TF1/PR), and PR/p1 cleavage sites of HTLV-1, -2, and -3 PRs were used as substrates. The oligopeptide substrates representing the natural sequences of HTLV PRs were ordered from BioBasic, while the oligopeptide substrates representing naturally occurring cleavage sites of various viruses, or the wild-type, the shortened, and the P4, P3, P2, P1, or P1′ variants of HTLV-1 MA/CA cleavage site (KTKVL*VVQPK) were in-house stocks. All peptides were dissolved in distilled water.
(§2) For kinetic measurements, we applied 10 µL 2× incubation buffer (0.5 M K3PO4, 4 M NaCl, 10 v/v% glycerol, 10 mM DTT, pH 5.6), 5 µL of HTLV-1, HTLV-2, or HTLV-3 PR (final concentration of the active enzyme was in 0.1–34.4 nM), and 0.5–5 µL oligopeptide substrate representing HTLV PR natural cleavage sites (0.05–1.10 mM final concentration). The final volume of the reaction mixture was set to 20 µL with distilled water if it was necessary. The reactions were initiated by the addition of the enzyme, were incubated at 37 °C for 0.5–4 h, and stopped by the addition of 180 µL 1 v/v% TFA. For substrates representing natural cleavage sites of retroviruses other than HTLV-1, -2, and -3 PRs (HIV-1, equine infectious anemia virus (EIAV), Rous sarcoma virus (RSV), mouse mammary tumor virus (MMTV), Mason-Pfizer monkey virus (MPMV), and murine leukemia virus (MuLV) and BLV) in a longer incubation time (24 h) was also applied. The cleavage products were separated by using a Nova-Pack C18 RP-HPLC column (3.9 mm × 150 mm, Waters Associates Inc, Milford, MA, USA) on HPLC (Merck-Hitachi LaChrom). Water-acetonitrile gradient (0–100%) was used for separation in the presence of 0.05% TFA at 2 mL/min flow rate. The kinetic parameters were determined by fitting the data—obtained at less than 20% substrate hydrolysis—to the Michaelis–Menten equation. The Gaussian equation was used to determine pH optimum and exponential growth equation for determination of optimal NaCl concentration, while linear regression was applied to plot the dependence of enzyme activity on temperature. Prism8 software (GraphPad Software Inc., San Diego, CA, USA) was used for evaluation. The kcat/KM catalytic constants were calculated based on the active enzyme concentration, which was determined by active site titration using the method described previously.

HTLV-3 PR = HTLV-3 PR (Human T-cell leukemia virus 3, UniProt Q4U0X6); test: Protease activity assay with oligopeptide substrates (RP-HPLC), HTLV-3 PR; type: biochemical, human T-cell leukemia virus type 3; design: made in house; host or cells: E. coli BL21(DE3), pET11a; conditions: pH 5.6, 37 °C
Source text: as §1, §2

HIV-1 PR = conditions: cleavage sites of viruses other than HTLV, retrieved from the literature, ref [28]; cited from earlier work
Source text: Table 3 Catalytic efficiencies of HTLV PRs on different substrates representing natural cleavage site sequences of viruses other than HTLV. Cleavage sites are labelled by an asterisk within the sequences. Abbreviations: MA (matrix), CA (capsid), NC (nucleocapsid), TF (transframe), RT (reverse-transcriptase), and IN (integrase). | column: kcat/KM (mM^−1 s^−1) / HIV-1 PR ^1

[1] = natural HTLV-1 cleavage site substrates, previously reported values, ref [34]
[2] = natural HTLV cleavage sites, substrate 0.05–1.10 mM, 2× buffer 0.5 M K3PO4, 4 M NaCl, 10 v/v% glycerol, 10 mM DTT, 0.5–4 h
[3] = cleavage sites of viruses other than HTLV, retrieved from the literature, ref [28]
[4] = cleavage sites of viruses other than HTLV, longer incubation time (24 h) also applied

Chain of HTLV-3 PR (Q4U0X6 431-553): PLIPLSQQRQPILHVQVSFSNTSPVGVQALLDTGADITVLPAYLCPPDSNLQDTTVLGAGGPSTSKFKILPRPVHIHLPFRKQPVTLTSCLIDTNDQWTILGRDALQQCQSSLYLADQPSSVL
Chain of HTLV-2 PR (P03363 447-571): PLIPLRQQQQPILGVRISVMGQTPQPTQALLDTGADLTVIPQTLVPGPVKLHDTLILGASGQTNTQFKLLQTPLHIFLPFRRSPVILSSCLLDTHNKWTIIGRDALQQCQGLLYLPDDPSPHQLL

| Substance | kcat/KM (HTLV-1 PR; [1]) | kcat/KM (HTLV-2 PR; [2]) [M⁻¹ s⁻¹] | kcat/KM (HTLV-3 PR; [2]) [M⁻¹ s⁻¹] | kcat/KM (HTLV-1 PR; [3]) | kcat/KM (HTLV-2 PR; [4]) | kcat/KM (HTLV-3 PR; [4]) | kcat/KM (HIV-1 PR) |
| --- | --- | --- | --- | --- | --- | --- | --- |
| APQVL*PVMHP [HTLV-1 MA/CA, oligopeptide substrate APQVL*PVMHP] | 85.2 ± 26.1 ^1 mM^−1 s^−1 | 5500 ± 1000 | 32500 ± 6700 | – | – | – | – |
| KGPPVIL*PIQAP [HTLV-1 PR/P1, oligopeptide substrate KGPPVIL*PIQAP] | 288.3 ± 73.6 ^1 mM^−1 s^−1 | 20600 ± 2800 | 238400 ± 60100 | – | – | – | – |
| PPAVS*LAMTM [RSV NC/PR, oligopeptide substrate PPAVS*LAMTM] | – | – | – | not cleaved | not cleaved | not cleaved | 130 M⁻¹ s⁻¹ |
| TFQAY*PLREA [RSV RT/IN, oligopeptide substrate TFQAY*PLREA] | – | – | – | not cleaved | not cleaved | not cleaved | 180 M⁻¹ s⁻¹ |
| TQTSLL*TLDDQ [MuLV NC/PR, oligopeptide substrate TQTSLL*TLDDQ] | – | – | – | not cleaved | not cleaved | not cleaved | not cleaved |
| PPMVG*VLDAP [BLV PR/P13, oligopeptide substrate PPMVG*VLDAP] | – | – | – | 0.7 mM⁻¹ s⁻¹ | not cleaved | not cleaved | 40 M⁻¹ s⁻¹ |
| PRSSLY*PALTP [MuLV MA/P12, oligopeptide substrate PRSSLY*PALTP] | – | – | – | not cleaved | not cleaved | not cleaved | 200 M⁻¹ s⁻¹ |
| PPVGFAG*AMA [MMTV P8/N, oligopeptide substrate PPVGFAG*AMA] | – | – | – | not cleaved | not cleaved | not cleaved | <10 M⁻¹ s⁻¹ |
| DPASIL*PVIP [HTLV-1 TF1/PR, oligopeptide substrate DPASIL*PVIP] | 3.8 ± 0.6 ^1 mM^−1 s^−1 | 400 ± 100 | 1200 ± 400 | – | – | – | – |
| IQPLIM*AVVNR [RSV P3/NC, oligopeptide substrate IQPLIM*AVVNR] | – | – | – | >100 mM⁻¹ s⁻¹ | not cleaved | not cleaved | 318000 M⁻¹ s⁻¹ |
| TSTLL*IENSS [MuLV RT/IN, oligopeptide substrate TSTLL*IENSS] | – | – | – | not cleaved | not cleaved | not cleaved | not cleaved |
| KARVL*AEAMS [HIV-1 CA/P2, oligopeptide substrate KARVL*AEAMS] | – | – | – | not cleaved | not cleaved | not cleaved | 90000 M⁻¹ s⁻¹ |
| VSQNY*PIVQ [HIV-1 MA/CA, oligopeptide substrate VSQNY*PIVQ] | – | – | – | not cleaved | not cleaved | not cleaved | 45300 M⁻¹ s⁻¹ |
| SDLVL*LSAEARR [MMTV MA/PP21, oligopeptide substrate SDLVL*LSAEARR] | – | – | – | not cleaved | not cleaved | not cleaved | 6900 M⁻¹ s⁻¹ |
| DELIL*PVKRK [MMTV P3/P8, oligopeptide substrate DELIL*PVKRK] | – | – | – | 2.6 mM⁻¹ s⁻¹ | not cleaved | not cleaved | 1500 M⁻¹ s⁻¹ |
| PKDIF*PVTET [MPMV P12/CA, oligopeptide substrate PKDIF*PVTET] | – | – | – | 0.2 mM⁻¹ s⁻¹ | not cleaved | not cleaved | 200 M⁻¹ s⁻¹ |
| ERQAN*FLGKI [HIV-1 NC/P1, oligopeptide substrate ERQAN*FLGKI] | – | – | – | not cleaved | not cleaved | not cleaved | 1000 M⁻¹ s⁻¹ |
| KEEIM*LAYQG [EIAV RT/RH, oligopeptide substrate KEEIM*LAYQG] | – | – | – | <0.01 mM⁻¹ s⁻¹ | not cleaved | not cleaved | 18300 M⁻¹ s⁻¹ |
| KTKVL*VVQPK [HTLV-1 CA/NC, oligopeptide substrate KTKVL*VVQPK] | 150.6 ± 15.1 ^1 mM^−1 s^−1 | 67200 ± 33400 | 30100 ± 15400 | – | – | – | – |
| PVVAM*PVVIK [RSV P10/CA, oligopeptide substrate PVVAM*PVVIK] | – | – | – | 0.1 mM⁻¹ s⁻¹ | not cleaved | not cleaved | not cleaved |
| RATVL*TVALH [RSV PR’/RT, oligopeptide substrate RATVL*TVALH] | – | – | – | 0.3 mM⁻¹ s⁻¹ | not cleaved | not cleaved | 1900 M⁻¹ s⁻¹ |
| CTLNF*PISP [HIV-1 PR/RT, oligopeptide substrate CTLNF*PISP] | – | – | – | not cleaved | not cleaved | not cleaved | 24100 M⁻¹ s⁻¹ |
| DSKAF*LADTW [MMTV PP21/P3, oligopeptide substrate DSKAF*LADTW] | – | – | – | not cleaved | not cleaved | not cleaved | 7500 M⁻¹ s⁻¹ |
| PPAIL*PIISE [BLV MA/CA, oligopeptide substrate PPAIL*PIISE] | – | – | – | 164.5 mM⁻¹ s⁻¹ | not cleaved | not cleaved | 300 M⁻¹ s⁻¹ |
| TSQAF*PLRAG [MuLV P12/CA, oligopeptide substrate TSQAF*PLRAG] | – | – | – | not cleaved | not cleaved | not cleaved | 8700 M⁻¹ s⁻¹ |
| VSFNF*PQITL [HIV-1 TF/PR, oligopeptide substrate VSFNF*PQITL] | – | – | – | not cleaved | not cleaved | not cleaved | 6900 M⁻¹ s⁻¹ |
| IAAAM*SSAIQ [RSV CA/P3, oligopeptide substrate IAAAM*SSAIQ] | – | – | – | not cleaved | not cleaved | not cleaved | not cleaved |
| KQPAIL*VHTPG [BLV CA/NC, oligopeptide substrate KQPAIL*VHTPG] | – | – | – | not cleaved | not cleaved | not cleaved | not cleaved |
| PSEEY*PIMID [EIAV MA/CA, oligopeptide substrate PSEEY*PIMID] | – | – | – | 0.7 mM⁻¹ s⁻¹ | not cleaved | not cleaved | 15200 M⁻¹ s⁻¹ |
| AKLVL*AQLSK [EIAV PR/RT, oligopeptide substrate AKLVL*AQLSK] | – | – | – | not cleaved | not cleaved | not cleaved | 13400 M⁻¹ s⁻¹ |
